Drawing on a melting point compilation (Tetko et al.; mined from patent text by program, amines drawn as free bases though some values may be those of a salt), this text covers melting point for 62 molecules.

Molecules are shown by their SMILES.

The molecule `C/C(=N\OC(=O)[C@@H]1CCCN(C(=O)OC(C)(C)C)C1)[C@H]1CC[C@H]2[C@@H]3CCC4=CC(=O)CC[C@]4(C)[C@H]3CC[C@]12C` displayed a melting point of 79 to 81 °C.
With `O=C(CC(F)=C(F)F)Oc1ccc([N+](=O)[O-])cc1`, the melting point lay in the range of 58 to 62 °C.
In turn, `O=C1NCC(C(F)(F)F)C(=O)N1c1ccccc1` (configuration not stated) had a melting point of 215 to 216 °C.
In turn, `CC(Cl)(Cl)C(NC(=O)c1cccc(Cl)c1)NC(=NC#N)Nc1cccnc1` (configuration not stated) displayed a melting point of 142 to 143 °C.
For `CSC(C)=NOC(=O)N(C)SCCSN(C)C(=O)ON=C(SC)C(=O)N(C)C` the value was 102 to 106 °C.
As for `NC(=O)C1N=COC1CCl` (configuration not stated), the melting point was in the range of 110 to 112 °C.
Turning to `CC(C)N1CCC(n2nc(-c3c(-c4ccccc4)nn4ccccc34)ccc2=O)CC1`, the melting point is 158 °C.
To `C=CCC(=CC(N)C(=O)O)CP(=O)(O)O` (configuration not stated) belongs 154 to 157 °C; to `O=C(CN1CCN(c2ccccc2)CC1)Nc1ccc2c(c1NC(=O)c1ccccc1)C(=O)c1ccccc1C2=O`, 225 to 226 °C; to `C=CCN(CC=C)c1nc(NC(=O)C=C(C)C)n2oc(=O)nc2n1`, 165 to 166 °C.
As to `O=C1CN=C(c2ccccc2F)c2cc(Cl)ccc2N1CC(O)CO` (configuration not stated), the melting point is 117 to 118 °C.
As for `CCCCOc1c(CNC(=O)OC(C)(C)C)n(CC2CC2)c(=O)c2ccc(C(N)=O)cc12`, the melting point was 202 to 203 °C.
The molecule `CC(C)(C)C(NC(=O)c1ccc(Cl)cc1)NC(=N[N+](=O)[O-])Nc1cccnc1` (configuration not stated) registered a melting point of 203 to 204 °C.
In turn, `CS(=O)c1ccc(-n2cnc(-c3ccc(F)cc3)c2-c2ccncc2)cc1` (configuration not stated) had a melting point of 202 to 203 °C.
Take `CN1CCC(=C2c3ccccc3C=Cc3ccc(C(=O)OCn4ccnc4)cc32)CC1`: the melting point lay in the range of 118 to 121 °C.
Molecule `Cc1ccc(N2CN(Cc3ccccc3)C3=NN=CC3=C2N)cc1` yielded a melting point of 195 to 196 °C.
Regarding `COc1cccc2c1nc(-c1c(F)cccc1F)n2CC=C(C)C`, the melting point lay within 101 to 103 °C.
Turning to `CC(C)CC(NC(c1ccc(-c2ccc(S(C)(=O)=O)cc2)cc1)C(F)(F)F)C(=O)NC(C#N)CC(=O)OCc1ccccc1` (configuration not stated), the melting point turned out to be 111 °C.
For `O=c1cc(O)c(Cl)cn1COCc1ccccc1` the value was 165 to 167 °C.
`COc1cc(C(=O)N2Cc3ccc(C(=O)NCc4ccccc4)n3Cc3ccccc32)ccc1-c1ccccc1C` gave a melting point of 170 to 174 °C.
To `CC(C)(C)OC(=O)N1CCN2C(=O)OC(Cc3ccccc3)(Cc3ccccc3)C2C1` (configuration not stated) belongs 188 to 189 °C.
Molecule `COc1ccc2c(c1)C(C(=O)O)CC2` (configuration not stated) returned a melting point of 101 °C.
`CN(C)SN(C)C(=O)ON=C1SCC(=O)NC1(C)C` displayed a melting point of 165 to 167 °C.
As to `COc1cc2c3c(n(C)c(=O)c2cc1OC)-c1cc2c(cc1C3=CCCCCl)OCO2`, the melting point is 196 to 201 °C.
On to `CCC1c2c([nH]c(=O)c(O)cc2=O)CC(Cl)C1Cl` (configuration not stated), for which the melting point came out at 197 °C.
For `O=C(NC(=O)N(SN1CCCC1=O)c1ccc(Oc2ccc(C(F)(F)F)cc2Cl)cc1F)c1c(F)cccc1F` the value was 125 to 126 °C; for `CC(C)C1(C)NC(c2ccccc2C(F)(F)F)=NC1=O` (configuration not stated), 109 to 110 °C; for `O=C(Nc1ccc(-c2ncon2)cc1)OCC(Cl)(Cl)Cl`, 108 to 110 °C.
On to `COc1ccc(C=CC(=O)Nc2ccncc2)c2c1OC1(CCCC1)C2`, for which the melting point lay in the range of 124 to 128 °C.
In turn, `CN1C(=O)C(c2cccc(-c3cncnc3)c2)(c2cscn2)N=C1N` (configuration not stated) displayed a melting point of 234 to 237 °C.
To `CCCc1c(OCC(O)COc2cccc(N)c2C#N)ccc(C(C)=O)c1O` (configuration not stated) belongs 123 to 125 °C.
Regarding `CC(=O)Nc1cccc(/C=C/C(=O)N2CC(CCl)c3ccc([N+](=O)[O-])cc32)c1` (configuration not stated), the melting point is 229 to 230 °C.
In the case of `COc1nc(Br)cnc1NS(=O)(=O)c1ccccc1-c1ccc(CC(C)C)cc1`, the melting point was in the range of 154 to 156 °C.
With `CNC(=O)N(OC(=O)OC)c1ccc(Cl)cc1`, the melting point fell in the range of 145 to 146 °C.
Molecule `CC(C)OC(=O)c1cc(NC(=O)c2c(Cl)c(Cl)c(Cl)c(Cl)c2C(=O)O)ccc1Cl` had a melting point of 178 to 179 °C.
The molecule `Cc1ccc(F)c(C2CC(=O)c3c(C)ccnc3C2)c1` (configuration not stated) had a melting point of 92 to 94 °C.
To `COc1ccccc1-c1ccc2cnc(Nc3ccc4c(c3)N3CCC4CC3)nn12` belongs 89 to 95 °C; to `Cc1nc(N2CCN(Cc3ccc(OC(F)(F)F)cc3)C2=O)sc1C(=O)NCc1cccnc1`, 165 to 166 °C; to `CC(C)n1nc(-c2c(-c3ccccc3)nc(N)nc2N2CCCC2)ccc1=O`, greater than 300 °C.
Regarding `N#Cc1c(N)nc2ccc(N3CCOCC3)cc2c1NCc1ccccc1`, the melting point is 202 °C.
Turning to `CCN(CC)c1nc(Cl)nc(Cl)n1`, the melting point lay within 77 to 79 °C.
For the molecule `O=C(O)C=CC1CC1(c1cccc(C(F)(F)F)c1)c1cccc(C(F)(F)F)c1` (configuration not stated), the melting point was in the range of 147 to 148 °C.
As to `O=C1Nc2ccc3sccc3c2C1=O`, the melting point is 200 to 201 °C.
As to `Cc1c(C)c2c(c(C)c1N)CC(C)(CN(C)C)O2` (configuration not stated), the melting point is 66 to 67 °C.
In the case of `N#Cc1c(N2CCN(C(=O)c3cccs3)CC2)c2sccc2n(CC(=O)c2ccccc2)c1=O`, the melting point is 300 °C.
For `COc1ccc(-n2nc(Sc3ccc(OC(F)(F)F)cc3)c(C)c(C#N)c2=O)cc1` the value was 165 to 167 °C; for `CCOC(=O)c1c(N2CCN(C(=O)c3cccs3)CC2)c2cc(F)cnc2n(CC(=O)c2ccccc2)c1=O`, 262 °C; for `Cc1nc2c(NCc3c(C)cccc3C)cc(C(=O)N(C)C)cc2[nH]1`, 203 °C.
As for `CCOP(=O)(Cc1cc(C2CCCCC2)c(O)c(C2CCCCC2)c1)OCC`, the melting point was determined as 120 °C.
The molecule `COc1cccc(CC(=S)N2CCCCC2)c1` registered a melting point of 55 to 56 °C.
`CC(C)[C@@H](NS(=O)(=O)c1ccc2ccccc2c1)C(=O)O` gave a melting point of 170 to 172 °C.
`CC[C@H](O)CC(=O)N[C@H]1CC[C@H](CCN2CCN(c3nccc4c3CCO4)CC2)CC1` returned a melting point of 158 °C.
As to `COc1ccc2ccc(C(N)=O)c(OC)c2c1`, the melting point lay within 134 to 136 °C.
Molecule `CSc1ccc(N2C(=O)N(CC(=O)Nc3c(C(C)C)cccc3C(C)C)C(=O)C23CCOCC3)cc1` displayed a melting point of 240 °C.
Molecule `Cc1cc(CSCCNc2nc(NC(=O)Nc3ccccc3)nn2C)oc1CN(C)C` had a melting point of 166 to 167 °C.
To `COc1cc(OCCO)c([N+](=O)[O-])cc1[N+](=O)[O-]` belongs 137 to 140 °C; to `CCc1oc2ccc(Cl)cc2c1C(=O)c1cc(Br)c(O)c(Br)c1`, 126 to 128 °C; to `O=c1ccoc2cc(O)ccc12`, 136 to 137 °C.
For `CC(N)C(O)(c1ccccc1)c1ccccc1` (configuration not stated) the value was 44 to 45 °C; for `Cc1c(O)ccc(C(=O)c2ccccc2F)c1C`, 131 to 132 °C.
In the case of `COc1cccc2c1C(=O)OC2c1ccccc1` (configuration not stated), the melting point fell in the range of 135 to 138 °C.
To `OCc1ccc(/C=C/c2ccc[nH]2)cc1` belongs 186 to 189 °C.
